These results are taken from patent publication US20250195472A1, “Indole Alkaloid as Antineoplastic Agent” (NAPP TECNOLOGIAS, S.A. DE C.V., priority 2021, published 2025).

The subject of data set [1] is MCF-7 (breast). The data set can be described thus: Sulforhodamine B growth inhibition, MCF-7 (breast). The settings on record: for inhibition at 100 µM: Homo sapiens, MCF7, read-out: Growth inhibition by cell line (%) MCF-7. Format: cell-based, human. Here is the method: (§1) For the evaluation of the cytotoxic effect of Andranone on neoplastic cells, 6 cell lines were used:
(§2) HCT-15 (colon), MCF-7 (breast), K-562 (leukemia), U-251 (central nervous system), PC-3 (prostate), SKUL (lung) and COST-7 (cervical uterus) from the National Cancer Institute (NCI) of the United States. The cytotoxicity of Andranone was determined in sixfold microcultures using preferable Andranone concentrations between 0.1 and 1.0 μM, more specifically between 0.1 and 0.6 μM and mostly between 0.1 and 0.3 μM. Cell viability and growth were measured indirectly by the sulforhodamine B method according to procedures validated by the NCI, using salicylic acid and Mezalasin as negative control compounds, and Cis-platinum as a control antineoplastic drug at concentrations of 100 μM.

Data set [2] has as its system SKUL (lung). The experiment in a line: Sulforhodamine B growth inhibition, SKUL (lung). Format: cell-based, human. The settings on record: for inhibition at 100 µM: Homo sapiens, read-out: Growth inhibition by cell line (%) SKUL. Here is the method: as §1, §2
Data set [3] has as its system PC-3 (prostate). The experiment in a line: Sulforhodamine B growth inhibition, PC-3 (prostate). The conditions noted are these: for inhibition at 100 µM: Homo sapiens, read-out: Growth inhibition by cell line (%) PC-3. Format: cell-based, human. Here is the method: as §1, §2
Data set [4] has as its system K-562 (leukemia). The experiment in a line: Sulforhodamine B growth inhibition, K-562 (leukemia). Format: cell-based, human. The conditions noted are these: for inhibition at 100 µM: Homo sapiens, K562, read-out: Growth inhibition by cell line (%) K-562. Here is the method:
as §1, §2

Data set [5] relates to HCT-15 (colon). The experiment in a line: Sulforhodamine B growth inhibition, HCT-15 (colon). The settings on record: for inhibition at 100 µM: Homo sapiens, HCT-15, read-out: Growth inhibition by cell line (%) HTC-15. Format: cell-based, human. Here is the method: as §1, §2
Data set [6] has as its system COST-7 (cervical uterus). The data set can be described thus: Sulforhodamine B growth inhibition, COST-7 (cervical uterus). Format: cell-based, human. The conditions noted are these: for inhibition at 100 µM: Homo sapiens, read-out: Growth inhibition by cell line (%) COST-7. Here is the method: as §1, §2
In data set [7] the test system is U-251 (central nervous system). The experiment in a line: Sulforhodamine B growth inhibition, U-251 (central nervous system). Format: cell-based, human. The conditions noted are these: for inhibition at 100 µM: Homo sapiens, U-251, read-out: Growth inhibition by cell line (%) U-251. Here is the method:
as §1, §2

Data set [8] concerns SW-620 (Colorectal carcinoma). The data set can be described thus: In vitro cytotoxic activity IC50, SW-620. Format: cell-based, human. From the text:
(§3) Additionally, the cytotoxic activity was weighted by the IC50 of Andranone on 12 cell lines of neuronal origin, PFSK-1 (brain, cerebral hemisphere); A-172 (Glioblastoma, patient); SW1088 (Brain Fibroblast); Daoy (Brain, Cerebellum); 1321N1 (Normal brain cells) HT-29 (Colorectal Carcinoma); SW-620 (Colorectal carcinoma); H-358 (Lung carcinoma); A-549 (Lung carcinoma); LA-N-5 (Neuroblastoma); SK—N-SH (Neuroblastoma); and L-929 (Mouse fibrosarcoma) using Bevacizumab as a control. The IC50 determination of Andranone was carried out in microcultures in sixfold.

Data set [9] has as its system Daoy (Brain, Cerebellum). The experiment in a line: In vitro cytotoxic activity IC50, Daoy. Format: cell-based, human.
Description: as §3

Data set [10] has as its system SK-N-SH (Neuroblastoma). The data set can be described thus: In vitro cytotoxic activity IC50, SK-N-SH. Format: cell-based, human.
Description: as §3

For data set [11], the system named is PFSK-1 (brain, cerebral hemisphere). The data set can be described thus: In vitro cytotoxic activity IC50, PFSK-1. Format: cell-based, human.
Description: as §3

Data set [12] has as its system A-172 (Glioblastoma). The experiment in a line: In vitro cytotoxic activity IC50, A-172. Format: cell-based, human.
Description: as §3

Data set [13] relates to LA-N-5 (Neuroblastoma). The experiment in a line: In vitro cytotoxic activity IC50, LA-N-5. Format: cell-based, human.
Description: as §3

The subject of data set [14] is HT-29 (Colorectal Carcinoma). The data set can be described thus: In vitro cytotoxic activity IC50, HT-29. Format: cell-based, human.
Description: as §3

Data set [15] relates to SW1088 (Brain Fibroblast). The data set can be described thus: In vitro cytotoxic activity IC50, SW1088. Format: cell-based, human.
Description: as §3

In data set [16] the test system is L-929 (Mouse fibrosarcoma). The experiment in a line: In vitro cytotoxic activity IC50, L-929. Format: cell-based.
Description: as §3

In data set [17] the test system is 1321N1 (Normal brain cells). The data set can be described thus: In vitro cytotoxic activity IC50, 1321N1. Format: cell-based, human.
Description: as §3

The test system of data set [18] is H-358 (Lung carcinoma). The data set can be described thus: In vitro cytotoxic activity IC50, H-358. Format: cell-based, human.
Description: as §3

For data set [19], the system named is A-549 (Lung carcinoma). The data set can be described thus: In vitro cytotoxic activity IC50, A-549. Format: cell-based, human.
Description: as §3

Data set [20] deals with U-251 cell line. The experiment in a line: Fluorescence analysis of effect on the cell membrane. Format: cell-based, human. The settings on record: high and low concentration (10 and 100 μM). Here is the method:
To determine the Andranone action mechanism on neoplastic cells, a fluorescence analysis was performed on cells of the U-251 cell line treated with 10 and 100 μM of cis-platinum and 0.1 and 0.2 μM of Andranone.

The test system of data set [21] is human peripheral blood lymphocytes. The experiment in a line: Micronucleus test in human peripheral blood lymphocytes. Format: cell-based. Here is the method: […] At 44 h, cytochalasin B (4.5 μg/mL) was added to all cultures and at 72 h the lymphocytes were harvested by centrifugation at 1500 rpm for 10 min. The cell bud was divided into 2 parts, one to perform the micronucleus test and the other was kept in PBS (pH 7.5) at −80° C. to perform the RT-qPCR tests.
For the micronucleus test, the first part of the cell bud was prefixed with 1 mL of Carnoy's fixative (3:1) and centrifuged at 1500 rpm for 10 min. The supernatant was removed, and the cell bud was resuspended. 5 mL of Carnoy fixative was added and centrifuged again at 1500 rpm for 10 min. This step was repeated 2 more times. Lamellae were made on slides using the drip technique and allowed to air dry. The samples were stained in 5% Giemsa dye and analyzed in the optical microscope at 40× to determine the frequency of micronuclei in 1000 cells (in duplicate).

With `O=C(O)c1ccccc1O` [Salicylic acid], the inhibition (as a rule, the relative decrease from the control value, in per cent) at 100 µM in data set [1] was 4.9%; in [2], 10.1%; in data set [3], 6.9%; in data set [4], 6.6%; in data set [5], below 3.1%; in data set [6], 11.2%. Further, the inhibition at 100 µM in data set [7] was determined as 6.8%.
For “Bevacizumab: Bevacizumab used as a control in the IC50 determination”, the IC50 (as a rule, the concentration at which inhibition is half-maximal) in data set [8] was 27.2 µM; in [9], 29.4 µM; in data set [10] it was 88.4 µM; in data set [11] it was 31.2 µM; in data set [12], 41.4 µM; in [13] it was 79.3 µM. The IC50 amounted to 38.4 µM in data set [14]; 47.3 µM in data set [15]; 126 µM in data set [16]; 39.5 µM in data set [17]; 115 µM in data set [18]; 105 µM in data set [19].
For `Nc1ccc(O)c(C(=O)O)c1` [Mesalazine], the inhibition at 100 µM in data set [1] was 11.9%; in [2] it was below 3.1%; in data set [3], 3.1%; in data set [4] it was 8.1%; in data set [5] it was below 3.1%; in data set [6], below 3.1%. In addition, the inhibition at 100 µM in data set [7] worked out at 6.3%.
With `N.N.[Cl][Pt][Cl]` [Cisplatin], the “Growth inhibition by cell line (%) MCF-7” value in data set [1] (100 μM) was 42.65%. Further, the “Growth inhibition by cell line (%) SKUL” value in [2] (100 μM) was 81.35%. Also, the “Growth inhibition by cell line (%) PC-3” value in [3] (100 μM) turned out to be 32.42%. The “Growth inhibition by cell line (%) K-562” value in data set [4] (100 μM) turned out to be 79.15%. Further, the “Growth inhibition by cell line (%) HTC-15” value in data set [5] (100 μM) is 87.49%. Besides, the “Growth inhibition by cell line (%) COST-7” value in [6] (100 μM) was determined as 43.39%. The “fluorescence analysis, cell membrane / cell death” value in [20] was “cell membrane alteration without being so obvious”. Moreover, in [7] (100 μM), the “Growth inhibition by cell line (%) U-251” value stood at 65.9%.
Consider Bleomycin, for which the IDN in data set [21] (Bleomycin 3.2 μg/mL) is reported as 1.60 ± 0.06. Moreover, in data set [21] (Bleomycin 3.2 mg/mL), the IPBC turned out to be 1.56 ± 0.05 and the “Relative cytotoxicity (%)” value was 34.50%. Moreover, the “frequency of MN” value in data set [21] (positive control, 3.2 μg/mL, 72 h) is recorded as “significantly increased”.
